Legend:
Assay type in all cases: cell-based
[1] = biological target: T1, human Nav1.5 sodium channel (Homo sapiens, UniProt Q14524); assay: hNav1.5 automated patch clamp; conditions: read-out: NaV IC50
T1 construct: assay run at Metrion Biosciences Ltd; host or cells: CHO
Protocol: Hz, and hCav1.2 current was measured as the peak current at 0 mV. All studies were […]
Three vehicle periods each lasting 5 minutes were applied to establish a stable baseline.
This was followed by the addition of increasing concentrations of test compound, with each exposure lasting 5 minutes. Patch clamp data were analyzed using Analyzer Software 6.4.72. Current amplitudes were determined by averaging the last 4 currents under each test condition. The percentage inhibition of each compound was determined by taking the ratio of current amplitude measured in the presence of various concentrations of the test compound (ICompound) versus the vehicle control current (IVehicle): % Inhibition = [1-(I Compound/IVehicle)] * 100%. A dose-response curve was generated and fit to the Hill equation by the Sophion Analyzer software to determine an IC50 value for each compound. The minimum and the […]
CHO cells stably expressing the human Nav1.5 sodium channel (University of Pennsylvania, Philadelphia, PA, hNav1.5 clone #6) were cultured in Hams F12 + Glutamax media supplemented with 10% FBS and Geneticin (0.5 mg/mL) at 37°C and 5% CO2 and subcultured every 2-3 days in T175 flasks. […]
Ionic currents were evaluated in the whole-cell configuration using the Qube384 platform using QChip 384x plates. […]

[2] = tested on: SARS-CoV-2 strain USA-WA1/2020; assay: dNHBE (human airway epithelial) cell infection model; conditions: Severe acute respiratory syndrome coronavirus 2, Epithelial cell; dNHBE (human airway epithelial) cells; plaque assay 3 dpi
[3] = biological target: T2, human Cav1.2/β2a/α2δ1 calcium channel (Homo sapiens, UniProt Q13936); assay: hCav1.2 automated patch clamp; conditions: read-out: CaV IC50
T2 construct: assay run at Metrion Biosciences Ltd; host or cells: HEK
Protocol: 1000 rcf for 2 min and resuspended in CHO-S-SFM II (Gibco) at a density of 3 million cells […]
Ionic currents were evaluated in the whole-cell configuration using the Qube384 automated planar patch clamp platform (Sophion Bioscience A/S, Ballerup, Denmark). QChip 384X plates, containing 10 patch clamp holes per well, were used to maximize success rate, which was routinely > 95%. For hERG experiments, the external solution was composed of (in mM): 140 NaCl, 2 KCl, 2 CaCl2, 1 MgCl2, 10 HEPES, 5 Glucose, pH 7.4, 350 mOsM. The internal solution contained (in mM): 20 KCl, 10 EGTA, 10 HEPES, 120 KF, pH 7.2, 335 mOsM. The hERG current was elicited from a holding potential of -80 mV by a voltage step to +40 mV for 500 ms, followed by a repolarizing ramp to -80 mV at -0.6 mV/ms. […] Peak hERG current was measured during the ramp. […]
This was followed by the addition of increasing concentrations of test compound, with each exposure lasting 5 minutes. Patch clamp data were analyzed using Analyzer Software 6.4.72 (Sophion Bioscience A/S, Ballerup, Denmark). Current amplitudes were determined by averaging the last 4 currents under each test condition. […]
Hz, and hCav1.2 current was measured as the peak current at 0 mV. […]
exposure lasting 5 minutes. Patch clamp data were analyzed using Analyzer Software 6.4.72. Current amplitudes were determined by averaging the last 4 currents under each test condition. […]

T1 sequence (Q14524 whole entry): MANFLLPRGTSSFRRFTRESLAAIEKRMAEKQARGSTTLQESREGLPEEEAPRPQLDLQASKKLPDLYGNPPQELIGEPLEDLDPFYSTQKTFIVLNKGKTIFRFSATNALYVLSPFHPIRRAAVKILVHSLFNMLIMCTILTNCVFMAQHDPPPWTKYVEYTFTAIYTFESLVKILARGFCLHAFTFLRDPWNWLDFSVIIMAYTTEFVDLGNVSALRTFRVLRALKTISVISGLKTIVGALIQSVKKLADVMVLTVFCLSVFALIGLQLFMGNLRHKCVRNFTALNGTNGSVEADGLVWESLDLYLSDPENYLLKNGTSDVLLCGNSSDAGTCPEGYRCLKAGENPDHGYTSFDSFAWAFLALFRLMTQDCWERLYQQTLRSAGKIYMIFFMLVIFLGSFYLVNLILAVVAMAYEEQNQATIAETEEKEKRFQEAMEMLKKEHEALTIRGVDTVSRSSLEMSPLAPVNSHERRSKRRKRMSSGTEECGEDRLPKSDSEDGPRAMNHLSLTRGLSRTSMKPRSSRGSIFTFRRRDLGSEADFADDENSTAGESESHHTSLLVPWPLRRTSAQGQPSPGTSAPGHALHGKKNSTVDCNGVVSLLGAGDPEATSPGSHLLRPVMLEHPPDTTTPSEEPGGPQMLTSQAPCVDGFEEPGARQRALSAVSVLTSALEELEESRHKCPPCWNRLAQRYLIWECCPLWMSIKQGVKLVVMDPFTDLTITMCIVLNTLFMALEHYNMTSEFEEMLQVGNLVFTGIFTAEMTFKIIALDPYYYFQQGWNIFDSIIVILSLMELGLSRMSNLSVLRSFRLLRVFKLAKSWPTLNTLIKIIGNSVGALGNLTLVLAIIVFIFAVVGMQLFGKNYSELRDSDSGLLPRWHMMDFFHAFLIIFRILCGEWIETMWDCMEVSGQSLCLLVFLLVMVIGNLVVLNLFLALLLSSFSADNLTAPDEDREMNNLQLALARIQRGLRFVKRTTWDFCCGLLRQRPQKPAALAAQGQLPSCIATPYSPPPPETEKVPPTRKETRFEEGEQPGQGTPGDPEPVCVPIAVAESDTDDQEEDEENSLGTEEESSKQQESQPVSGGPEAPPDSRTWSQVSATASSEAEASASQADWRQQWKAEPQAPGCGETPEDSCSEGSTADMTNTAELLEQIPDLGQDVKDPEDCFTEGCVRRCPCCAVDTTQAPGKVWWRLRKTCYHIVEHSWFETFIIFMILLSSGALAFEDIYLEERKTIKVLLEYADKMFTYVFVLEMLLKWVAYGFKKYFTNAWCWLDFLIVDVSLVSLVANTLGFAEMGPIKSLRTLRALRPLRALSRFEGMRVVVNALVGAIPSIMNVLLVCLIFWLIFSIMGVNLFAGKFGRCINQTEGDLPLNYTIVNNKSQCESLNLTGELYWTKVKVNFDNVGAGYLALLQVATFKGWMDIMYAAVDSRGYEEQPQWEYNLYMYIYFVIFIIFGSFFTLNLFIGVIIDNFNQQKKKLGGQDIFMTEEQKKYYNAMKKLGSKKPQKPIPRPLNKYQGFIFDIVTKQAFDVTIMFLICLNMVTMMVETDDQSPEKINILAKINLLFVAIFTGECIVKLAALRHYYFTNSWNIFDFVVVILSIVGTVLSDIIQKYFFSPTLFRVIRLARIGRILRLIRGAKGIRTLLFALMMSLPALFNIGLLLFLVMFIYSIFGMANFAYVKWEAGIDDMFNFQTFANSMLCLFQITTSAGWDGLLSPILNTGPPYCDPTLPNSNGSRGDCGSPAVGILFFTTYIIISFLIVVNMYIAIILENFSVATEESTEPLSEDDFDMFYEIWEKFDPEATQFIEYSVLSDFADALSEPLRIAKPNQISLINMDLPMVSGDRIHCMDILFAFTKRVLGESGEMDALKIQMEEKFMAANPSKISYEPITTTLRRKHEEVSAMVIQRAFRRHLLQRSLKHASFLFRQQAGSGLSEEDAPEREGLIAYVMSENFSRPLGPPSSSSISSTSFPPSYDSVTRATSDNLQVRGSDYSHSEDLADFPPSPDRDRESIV

SMILES: Cc1ccc(N2CCN(C)CC2)cc1C(=O)NC1(c2cc(-c3cnn(C)c3)nc3ccccc23)CC1 [Compound 4]
- IC50 [1]: > 100000 nM
- EC50 [2]: 13.9 nM
- EC90 [2]: 56.7 nM
- IC50 [3]: > 100000 nM
